Measured values as given in PubChem BioAssay (NCI).
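Exposure lasted 48 hours, with cells grown in 96-well plates and compounds tested at five concentrations. GI50 is the concentration that inhibits growth by half. Definition used: TGI = concentration required for complete inhibition of growth.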

How the values were obtained:
Experiment in all cases: growth of human tumour cells (NCI), 48 h
[1] = tested on: A549 NSCLC
[2] = tested on: CCRF-CEM leukemia
[3] = tested on: HOP-92 NSCLC
[4] = tested on: MDA-MB-435
[5] = tested on: OVCAR-5 ovarian
[6] = tested on: OVCAR-8 ovarian
[7] = tested on: SW-620 colon
[8] = tested on: UACC-257 melanoma
[9] = tested on: NCI-H226 lung

Row | SMILES | TGI [1] | TGI [2] | TGI [3] | TGI [4] | TGI [5] | TGI [6] | TGI [7] | TGI [8] | TGI [9] | GI50 [1] | GI50 [2] | GI50 [9] | GI50 [5] | GI50 [6] | GI50 [7] | GI50 [8]
1 | O=C(O)CSC(CC(=O)c1ccc(Cl)cc1)c1ccc(Cl)cc1 (stereo not drawn) | > 100 µM | 36.3 µM | 73.2 µM | > 100 µM | > 100 µM | 57 µM | > 100 µM | 53.3 µM |  |  |  |  |  |  |  | 
2 | C=C(C)C1CC(=O)C(C)=C(O)C1 (stereo not drawn) | > 100 µM | > 100 µM |  |  | > 100 µM | > 100 µM | > 100 µM | > 100 µM | > 100 µM |  |  |  |  |  |  | 
3 | CCN(CC)C(=S)SC(C(=O)Nc1nnc(-c2ccc(Cl)cc2)o1)c1ccccc1 (stereo not drawn) | 52.1 µM | 9.82 µM | 51.5 µM | 36 µM | 26.6 µM | > 100 µM | 35.9 µM | > 100 µM |  |  |  |  |  |  |  | 
4 | CCOC(=O)c1c(N)sc2c1C(C(=O)OCC)CCCC2 (stereo not drawn) | > 100 µM |  | > 100 µM |  | > 100 µM | > 100 µM | > 100 µM | > 100 µM | > 100 µM |  |  |  |  |  |  | 
5 | Cc1nc(NC(C)(CO)CO)nc(N/N=C/c2ccc(Cl)cc2)c1C(=O)Nc1ccc(Cl)cc1 | > 100 µM | > 100 µM |  | > 100 µM | > 100 µM | > 100 µM | > 100 µM | > 100 µM | > 100 µM |  |  |  |  |  |  | 
6 | CN(CCCCCl)P(=O)(OCc1ccc([N+](=O)[O-])o1)OCC1OC(n2ccc(N)nc2=O)C(O)C1O (stereo not drawn) | 2.61 µM |  |  | 8.21 µM | > 100 µM | > 100 µM | 69.6 µM | 30.2 µM | > 100 µM |  |  |  |  |  |  | 
7 | CCOP(=O)(/C=C/n1cc(C)c(=O)[nH]c1=O)OCC | > 100 µM | > 100 µM |  | > 100 µM | > 100 µM | > 100 µM | > 100 µM | > 100 µM | > 100 µM |  |  |  |  |  |  | 
8 | O=C1c2ccccc2-c2nc3ccncc3n21 | > 100 µM | > 100 µM | > 100 µM |  | > 100 µM | > 100 µM | > 100 µM | > 100 µM | > 100 µM |  |  |  |  |  |  | 
9 | CCC1(O)CC(CCN(Cc2ccccc2)C(=O)OCc2ccccc2)C(OCc2ccccc2)C1O (stereo not drawn) | 27.1 µM | 81.7 µM |  | 38.2 µM | 41.2 µM | 30.1 µM | > 100 µM | 34.7 µM | 25.3 µM |  |  |  |  |  |  | 
10 | CC(O)c1nc(C#N)c(N)o1 (stereo not drawn) | > 100 µM | > 100 µM | > 100 µM |  | > 100 µM | > 100 µM | > 100 µM | > 100 µM | > 100 µM |  |  |  |  |  |  | 
11 | COC(=O)c1c2c(cc3c1CC1(Cc4cc5c(c(C=O)c4C1)CCC5)C3)CCC2 (stereo not drawn) | > 100 µM | 56.7 µM | 60.7 µM | 50.5 µM | > 100 µM | > 100 µM | > 100 µM | 71.3 µM |  |  |  |  |  |  |  | 
12 | N#Cc1c(NC(=S)Nc2ccc(Cl)cc2)sc2c1CCN(N1CCc3c(sc(NC(=S)Nc4ccc(Cl)cc4)c3C#N)C1)C2 | > 100 µM | > 100 µM |  | > 100 µM | 31.1 µM | 88.5 µM | > 100 µM | > 100 µM | 34.4 µM |  |  |  |  |  |  | 
13 | Nc1c(C(=O)c2ccc(Cl)c(Cl)c2)[nH]c(NCc2ccccc2)c1C(=S)Nc1ccccc1 | 23.3 µM |  |  | 18.3 µM | 28.2 µM | 30.2 µM | 10.1 µM | 30.5 µM | 31.4 µM |  |  |  |  |  |  | 
14 | O=C1c2cc3c(cc2-c2c1c1cc(F)c(F)cc1c(=O)n2CCCn1ccnc1)OCO3 | 1.32 µM | > 100 µM |  |  | > 100 µM | > 100 µM | > 100 µM | 0.65 µM | 0.115 µM | 0.018 µM | < 0.01 µM | 0.0248 µM | 0.0832 µM | 0.022 µM | < 0.01 µM | 0.0969 µM
15 | CC(=O)n1[nH]c(=O)n(-c2ccc(Cl)cc2)c1=O | > 100 µM | > 100 µM |  | > 100 µM | > 100 µM | > 100 µM | > 100 µM | > 100 µM | > 100 µM |  |  |  |  |  |  | 
16 | FC1=C2C3CCC(C3)C2C1(F)F (stereo not drawn) | > 100 µM | > 100 µM |  | > 100 µM | > 100 µM | > 100 µM | > 100 µM | > 100 µM | > 100 µM |  |  |  |  |  |  | 
17 | N[C@@H](CCC(=O)NC(Cc1ccccc1)C(=O)NCP(=O)(O)O)C(=O)O (stereo partly drawn) | > 100 µM |  |  | > 100 µM | > 100 µM | > 100 µM | > 100 µM | > 100 µM |  |  |  |  |  |  |  | 
18 | CCN1CC2(C)CCC(OC)C34C5CC6CCC(O)(C5C(=O)O6)C(C(O)C23)C14 (stereo not drawn) | > 100 µM | > 100 µM | > 100 µM | > 100 µM | > 100 µM | > 100 µM | > 100 µM | > 100 µM |  |  |  |  |  |  |  | 
19 | CC(Nc1ccc(Cl)cc1)c1ccncc1 (stereo not drawn) | > 100 µM | > 100 µM |  | > 100 µM | > 100 µM | > 100 µM | > 100 µM | > 100 µM | > 100 µM |  |  |  |  |  |  | 
20 | O=C1Nc2ccccc2/C1=C\c1c(Cl)n(-c2ccccc2)c2ccccc12 | 25 µM | > 100 µM | 7.63 µM |  | 12.9 µM | 40.8 µM | > 100 µM | 36.5 µM | 12.2 µM |  |  |  |  |  |  | 
21 | O=c1[nH]c(=O)n(COC(CO)CO)cc1-c1ccccc1 | > 100 µM | > 100 µM | > 100 µM | > 100 µM | > 100 µM | > 100 µM | > 100 µM | > 100 µM |  |  |  |  |  |  |  | 
